The values that follow are results of earlier work, collected in patent EP3964225A1 (priority 2020, dated 2022).

In this data set the test system is B cell growth. To be noted: eight p17 peptides tested.

Take “GARASVLSGGELDRWEKIRL [peptide F1, p17-derived peptide, aminoacids 2 to 21 of p17]”: the “cell growth promoting activity” value is “the only one endowed with cell growth promoting activity”.
